Measurements reported in patent US8729312B2, “Derivatives of novel peroxides, method of preparation thereof and use thereof in human medicine as well as in cosmetics for the treatment or prevention of acne” (Galderma Research & Development, priority 2009, dated 2014).
In brackets after ≈: the same amount, converted by molar mass. Several values for one entry are separate records, joined by “and”; a condition that tells them apart may be missing. Equal entries are not always repeated.

Columns and labels:
[1] = tested on: P. acnes CIP53.117; experiment: Minimum inhibitory concentration (MIC) on Propionibacterium acnes, dilution in liquid medium; type: cell-based; conditions: strain CIP53.117, anaerobic, 36° C., minimum 72 h, range 2.5 mg/L to 1280 mg/L
From the text: (§1) the aim is to evaluate the anti-bacterial activity of the peroxides by measuring the minimum inhibitory concentration (MIC). The MIC is defined as the lowest concentration of product capable of inhibiting all visible growth.
(§2) The sensitivity of the products is investigated on two strains from the Pasteur Institute collection (CIP) of Propionibacterium acnes (P. acnes): • P. acnes CIP53.117, equivalent to ATCC6919, origin: facial acne lesion (1920), source CRBIP, Pasteur Institute, Paris • P. acnes CIPA179, origin: sebaceous gland (1946), source CRBIP, Pasteur Institute, Paris Tests on the Products:
(§3) The products are dissolved at 1280 mg/L in a mixture of absolute ethanol/sterile Tween 80/sterile Wilkins Chalgren broth ([…]). The dilution ranges used are an adaptation of the method described by the CLSI for methods of dilution in liquid medium. The range consists of 10 concentrations from 2.5 mg/L to 1280 mg/L at intervals of ratio 2.
(§4) The suspension of P. acnes is prepared in Wilkins Chalgren broth and calibrated at an optical density of about 0.4 at wavelength of 525 nm. It is then diluted to 1/10 in Wilkins Chalgren broth and then put in the test cupules to obtain a final suspension of about 10^5-10^6 CFU/mL in each test cupule.
(§5) The solutions of the test products are distributed on a 96-well microplate and incubated at 36° C.±2° C. under anaerobic atmosphere for a minimum of 72 h. The first cupule for which there is no growth visible to the naked eye is regarded as the MIC.

[2] = tested on: P. acnes CIPA179; experiment: as above; type: cell-based; conditions: strain CIPA179, anaerobic, 36° C., minimum 72 h, range 2.5 mg/L to 1280 mg/L
From the text: as §1, §2, §3, §4, §5

[3] = tested on: TPA-induced ear oedema; experiment: Anti-inflammatory activity after a single topical administration in TPA-induced ear oedema; type: in vivo, mouse; conditions: for Inhibition vs TPA (%) / Ear oedema Mean / anti-inflammatory effect (conclusion in words): single topical application; for Inhibition vs TPA (%): T6h; for Ear oedema Mean: mouse ear thickness at T6h; for ranking compared to BPO at 5%: compound at 5%
Protocol: the aim is to evaluate the anti-inflammatory activity of the peroxides by measuring the thickness of mouse ear after TPA topical application. The anti-inflammatory activity is defined as a inhibition percentage of the TAP-induced ear oedema.
An oedema was induced by a single topical application of 20 μl of TPA dissolved in acetone at 0.01%.
Then a single topical application of tested compounds dissolved in TPA solution.
Ear thickness was measured at T6h.
Results are expressed in percentages based on the inhibition on the oedema induced by the TPA application.
Benzoyl peroxide (BPO) was tested 2 times as a reference peroxide.

[4] = TPA-induced ear oedema mouse model

| SMILES | MIC (minimum inhibitory concentration) [1] [µg/mL] | MIC (minimum inhibitory concentration) [2] [µg/mL] | ranking of Ex n°1 against Ex n°2 ([3]; both at 5%, TPA-induced ear oedema mouse model) | Inhibition vs TPA (%) ([3]; compound 1% in TPA 0.01%) | Ear oedema Mean ([3]; compound 1% in TPA 0.01%) | Inhibition vs TPA (%) ([3]; compound 2.5% in TPA 0.01%) | Ear oedema Mean ([3]; compound 2.5% in TPA 0.01%) | Inhibition vs TPA (%) ([3]; compound 5% in TPA 0.01%) | Ear oedema Mean ([3]; compound 5% in TPA 0.01%) | ranking compared to BPO at 5% [3, 4] | anti-inflammatory effect (conclusion in words) [3, 4] | MIC ([1]; Cutibacterium acnes) [µg/mL] | MIC ([2]; Cutibacterium acnes) [µg/mL] |
| --- | --- | --- | --- | --- | --- | --- | --- | --- | --- | --- | --- | --- | --- |
| CC(=O)OCOc1ccccc1C(=O)OOC(=O)c1ccccc1OCOC(C)=O [Example 1, bis(2-acetoxymethoxy)-benzoyl peroxide] | 320 (≈ 765 µM) | 320 (≈ 765 µM) | slightly better than Ex n°2 at 5% | 45.7 | 13.80 | 74.8 | 6.40 | 81.9% | 4.60 | superior compared to BPO 5% | strong dose-dependent anti-inflammatory effect | – | – |
| O=C(OOC(=O)c1ccccc1)c1ccccc1 [BPO, Benzoyl peroxide, reference compound] | – | – | – | – | – | – | – | 21.4% and 27.8% | 17.60 and 20.80 | – | – | – | – |
| CC(=O)OCOc1ccccc1C(=O)OOC(=O)c1ccccc1 [Example 2, (2-acetoxymethoxy-benzoyl)benzoyl peroxide] | – | – | – | 19.7 | 20.40 | 42.5 | 14.60 | 71.7% | 7.20 | superior compared to BPO 5% | moderate anti-inflammatory effect | 160 (≈ 484 µM) | 80 (≈ 242 µM) |
